A melting point compilation (Tetko et al.; mined from patent text by program, amines drawn as free bases though some values may be those of a salt)

Structure (SMILES) | melting point [°C]
O=P1(O)Oc2c(Cl)cc(Cl)cc2-c2ccc(Cl)cc21 | 260
CC(CNc1nc(Cl)ncc1Cl)NS(C)(=O)=O (stereo not drawn) | 160
CNC(=O)c1c(I)c(NC(=O)COC)c(I)c(C(=O)NC(CO)C(=O)O)c1I (racemic) | 247 to 248
CNc1noc(C)c1Cl | 43 to 47
CCOC(=O)COc1ccc2c(C)c(CCN(CC)CC)c(=O)oc2c1Cl | 147 to 148
CCc1c(OC)cc(OC)c2c1C(=O)N(CSc1nnnn1-c1ccccc1)S2(=O)=O | 162 to 164
COc1ccc(C(=CC(=O)N2CCOCC2)c2ccc(Oc3nc(Cl)nc(Cl)n3)cc2)cc1OC | 90 to 100
N#Cc1cnc2ccsc2c1Sc1ccc(Cl)cc1Cl | 126 to 128
c1ccc2c(c1)nc1n2CCC1 | 86 to 88
CCOC(=O)Nc1ccc(C)c(Cl)c1 | 51 to 52
CC(=O)C(=CNc1cc(Cl)c(Cl)c(C(=O)O)c1Cl)C(C)=O | 242 to 244
COc1cc2c(cc1-c1cncs1)-c1c(-c3cncs3)c3c(n1CC2)C(=O)N(C(C)(C)C)CCOC3 | 254 to 255
Cc1cc(Nc2nccc(-c3sc(-c4cccnc4)nc3C)n2)ccc1N1CCCCC1 | 200 to 201
OC1CSC(Oc2ccccc2-c2cccnc2)C(O)C1O (stereo not drawn) | 195
NNC(=O)c1ccc2c(c1)C(=C(Cl)Cl)OC(C(Cl)(Cl)Cl)O2 (stereo not drawn) | 182 to 183
C=CCNc1ccc(N(CC=C)CC=C)cc1[N+](=O)[O-] | 131 to 140
CSC(=Nc1c(C(C)C)cc(Oc2ccc(Cl)cc2)nc1C(C)C)NC(C)(C)C | 95 to 100
CCOC(=O)NC(=S)SCC | 60
COC(=O)Nc1cccc(CC(C)N)c1 (stereo not drawn) | 93 to 95
COc1cc(CCl)cc(OC)c1OCc1nc(-c2ccccc2)oc1C | 118 to 119

Structure (SMILES) | melting point [°C]
Fc1cccc(C2OC3(CCNCC3)N3CCCCC23)c1 (stereo not drawn) | 133 to 135
COc1ccc(C(=O)N(C(=O)c2ccc(OC)cc2)c2nc3ccc(N4CCN(Cc5ccccc5)CC4)cc3c(NCc3ccccc3)c2C#N)cc1 | 157
COC(=O)C1=C(C)Nc2c(c(C)nn2C)C1c1cccc([N+](=O)[O-])c1 (stereo not drawn) | 163 to 166
Cc1cc(C(=O)NC2CC(C)(C)NC(C)(C)C2)c(C)o1 | 116 to 118
CCCO[C@H]1CC[C@H](c2cnc(-c3ccc(C#N)cc3)nc2)CC1 | 114
Nc1cc2c(cc1N)C1CC2CN(C(=O)C(F)(F)F)C1 | 129 to 131
CC(=O)OCCOc1ccc(C2C(=O)Oc3c2cc(C(C)(C)C)cc3C(C)(C)C)cc1 (stereo not drawn) | 75 to 78
COc1cc(OC)nc(NC(=O)NS(=O)(=O)c2ccccc2-c2nccn2C)n1 | 182 to 183
CC(=O)C1CCC2C3CCC4CC(=O)C(C)CC4(C)C3C(=O)CC12C (stereo not drawn) | 176
Nc1ncc(Cl)nc1Cl | 117 to 118
Oc1ccc(OCCCCCCBr)cc1 | 43 to 45
OP(O)C1(NC(c2ccccc2)c2ccccc2)CCCCC1 | 194 to 196
O=S1(=O)CCN(c2nc(Cl)nc3c(Cl)ncnc23)CC1 | 270 to 273
O=c1[nH][nH]c(=O)n1CCOc1ccccc1 | 187 to 189
CS(=O)(=O)Nc1nn(CCN2CCCCC2)cc1-c1ccccc1 | 121
CN(C)C(=O)CCc1c[nH]c(-c2cccs2)c1 | 107 to 109
CS(=O)(=O)c1cc(C(=O)O)cc(NCc2ccco2)c1Cl | 216
CCOC(=O)c1ccc([N+](=O)[O-])cc1CBr | 65 to 66
O=C(NCc1ccc(Cl)cc1)c1cn(CC2CCCO2)c2sc(CN3CCOCC3)cc2c1=O (stereo not drawn) | 191 to 195
O=[N+]([O-])c1cc(F)c(N2CCSCC2)c(F)c1 | 104 to 105

Structure (SMILES) | melting point [°C]
Cc1nc(C(C)O)cn1Cc1ccccc1 (stereo not drawn) | 162 to 168
CCCc1c(OCCCCCCCCOc2ccc(C(=O)c3cccc(C(=O)O)c3)cc2CCC(=O)O)ccc2c1OCCC2=O | 112 to 117
CCNS(=O)(=O)c1nc2ccccc2n1CC | 135 to 139
CC1CCCCN1CCC(CCN(C(C)C)C(C)C)(C(N)=O)c1ccccc1F (stereo not drawn) | 90 to 91
COC(=O)c1cc(N2C(=O)C3C4CC4CN3C2=O)c(F)cc1Cl (stereo not drawn) | 59 to 62
CC1(C)COC(c2ccc3c(c2)COC3=O)=N1 | 109 to 111
CCOC(=O)c1cn(-c2nc(N)c(F)cc2F)c2c(Cl)c(NCC(O)COC3CNC3)c(F)cc2c1=O (stereo not drawn) | 148 to 152
CCC12C=C(C(=O)OC)n3c4c(c5ccccc53)CCN(CCC1)C42 (stereo not drawn) | 160 to 162
COc1ccc(-c2ccc(N)nn2)cc1OC1CCCC1 | 207
CCCCCCCCCCCCC#CC#CCCCCCCCC(C(N)=O)C(C)c1ccccc1 (stereo not drawn) | 65.5 to 66.5
CCOC(=O)CCCCn1c(=O)[nH]c2ccc(O)cc2c1=O | 105 to 107
COc1cc(OC)c2c(=O)[nH]c(-c3cc(C)c(OCCN4CCCC4)c(C)c3)nc2c1 | 181 to 183
O=C1c2cc3ccc4c(c3c(-c3ccc5c(c3)OCO5)c2C(=O)N1CCCO)OCO4 | 150 to 152
CN1Cc2c(Cl)ncn2-c2cccnc2C1=O | 247 to 248
O=C1c2cc(F)cc(F)c2CC[C@@H]1NC(=O)C(F)(F)F | 142 to 145
CS(=O)(=O)c1ccc(CN2CC3(COc4cc5c(cc43)OCO5)c3ccccc32)o1 (stereo not drawn) | 177 to 179
Cc1cc(C(N)C(=O)O)ccc1O (stereo not drawn) | 205 to 207
CN(CCSCc1nc[nH]c1CSCCN(C)C(N)=S)C(N)=S | 154 to 155
COCOc1cc(-n2c(OC)nc(C(F)(F)F)cc2=O)c(F)cc1Cl | 97 to 98

The remaining lines, values ahead:

melting point [°C] | Structure (SMILES)
82 to 83 | CCOc1ccc(OCc2ccc(OCc3nc(-c4ccccc4)oc3C)cc2)cc1CC(=O)OC
78 to 81 | COc1ccccc1N1CCN(C(=O)CCCCN2CC=C(c3c[nH]c4cc(F)ccc34)CC2)CC1
103 to 105 | O=c1cc(-c2ccccc2)oc2ncccc12
195 to 196 | CS(=O)(=O)c1ccc(-c2oc3ccccc3c(=O)c2-c2cccc(Cl)c2)cc1
> 350 | CCCn1c(=O)c2nc(-c3cccc(/C=C/C(=O)O)c3)[nH]c2n(CC2CCCCC2)c1=O
65 to 67 | Cc1ccnc(C=Cc2ccccc2)n1
256 to 258 | CC(C)(C)c1cc(-c2nn(C(=O)c3ccc(Cl)cc3)c3ncccc23)cc(C(C)(C)C)c1O
232 to 234 | COC(=O)/C=C/c1ccc2nn(C)cc2c1C(=O)OC
71 | O=C(/C=C/c1ccc(Br)cc1)c1c(F)cccc1F
192 | Nc1nc(Cl)cc(Oc2ccc3[nH]ccc3c2)n1
239 to 240 | COc1cc(Cl)c2c(c1)NC(=O)C(C)(c1ccc(Br)cc1)C2=O (stereo not drawn)
189 to 190 | CCn1c(=O)n(OCc2ccccc2)c(=O)c2cc(F)c(N3CCCC3)nc21
79 to 82 | COc1ccc2c(c1)CCC(N(C)c1ccc(O)cc1)C2 (stereo not drawn)
190 to 192 | CC(=O)OCC1OC(n2cc(Cc3ccc(Br)cc3)c3c(C)cccc32)C(OC(C)=O)C(OC(C)=O)C1OC(C)=O (stereo not drawn)
177 to 179 | Oc1ccc(CNC2=NCCc3ccccc32)cc1
139 to 140 | Cc1ccc(S(=O)(=O)Cc2cccc(C(F)(F)F)c2)cc1
245 to 246 | Cc1ccc2nc(NC(=O)c3ccc(C(C)(C)CCc4nnn[nH]4)cc3)cn2c1
101 to 103 | COc1cccc2c(Cc3nc(-c4ccccc4)co3)coc12
198 | COc1cccc(C2CSc3ccccc3NC2=O)c1 (stereo not drawn)
237 to 238 | O=c1c(-c2ccc(O)cc2)coc2ccccc12
90 to 92 | C[C@H]1C[C@@](O)(c2cccc(Sc3cc4c(cc3F)N(C)C(=O)CC4)c2)CCO1
111 to 117 | COc1ccc(C(=O)Cc2ccncc2)c2c1OCC2C (stereo not drawn)

melting point [°C] | Structure (SMILES)
176 to 177 | Cc1cccc(Nc2nncc3ccccc23)c1
172 to 173 | CS(=O)(=O)n1ccc2c1CC(c1ccccc1)CC2=O (stereo not drawn)
174 to 175 | Cc1noc(-c2ccc(F)cc2)c1-c1ccc(S(N)(=O)=O)cc1
194 to 195 | C#CCN(C(CCn1c(=O)[nH]c2ccccc2c1=O)C(=O)O)S(=O)(=O)c1ccc(Oc2ccccc2)cc1 (stereo not drawn)
245 to 246 | COc1cccc2c(Nc3ccccc3)nc(Cl)nc12
129 to 134 | Cc1nc(N)nc(N)c1CCCC(C)c1ccc(-c2cc(F)cc(F)c2)cc1 (stereo not drawn)
143 to 145 | O=C(CCCN1CCC2(CC(O)c3cc(F)ccc32)C1)c1ccc(F)cc1 (stereo not drawn)
157 | CCN(CC)S(=O)(=O)c1cc2oc(-c3ccccc3)nc2c2ccccc12
194 to 196 | CC(=Cc1ccc(C(=O)O)cc1)c1ccc2c(c1)N(C)CCC2(C)C
120 to 122 | Cc1cccc(CC(Nc2ccccc2)C(=O)NC(C#N)COCc2cccc(-c3nnn[nH]3)c2)c1 (stereo not drawn)
222 | Fc1ccccc1C1=CCc2nnc(Br)n2-c2ccc(Cl)cc21
204 | COC(=O)C1=C(C)NN=C(c2cccc(Cl)c2)C1c1cccc(Cl)c1 (stereo not drawn)
117 to 119 | CC1CC(=O)c2c(ccc(F)c2Cl)N1 (single isomer, unassigned; (-))
166 to 176 | CC(C)CC(=O)Nc1ccc(-c2ccncc2)cc1
209 | O=C(O)c1ccc(CNCc2cc(Br)ccc2OCc2ccccc2)cc1
161 to 164 | O=C(NCc1ccc(Cl)cc1)c1cn(N2CCCCC2)c2ccc(CN3CCOCC3)cc2c1=O
121 to 123 | CN1CCC2(CC1)SC(c1ccc(Cl)cc1)c1ccccc12 (stereo not drawn)
183 | CN(C)c1ccc(C(=O)NC2CCN(C(c3ccccc3)c3ccccc3)CC2)c([N+](=O)[O-])c1
167 to 168 | COc1ccc(Oc2c(C)cc([N+](=O)[O-])cc2C)cc1C(=O)c1ccc(F)cc1
125 | CCOC(=O)CCN(C(C)(C)C(=O)NO)S(=O)(=O)c1ccc(Oc2ccc(F)cc2)cc1
82.5 to 83.5 | CC(O)c1ccc(-c2ccc(Cl)c(Cl)c2)o1 (stereo not drawn)
224 to 229 | Oc1ccc(-c2cc3ccccc3[nH]2)cc1
